Laboratory results from patent US9169254B2, “Spiroimidazolone derivative” (Chugai Seiyaku Kabushiki Kaisha, priority 2009, dated 2015).
Structures can show the parent of a compound that is named as a salt.

target: T1, human PTH1 receptor (Homo sapiens, UniProt Q03431); assay: In vitro cAMP signal activity in HKRK-B7 cells (LLC-PK1 cells overexpressing the human PTH1 receptor); assay type: cell-based; settings: HKRK-B7 cells; compound at 1×10^−3 M; cAMP produced as percentage of that produced by hPTH(1-34) at 100 nM
T1 sequence (Q03431 27-593): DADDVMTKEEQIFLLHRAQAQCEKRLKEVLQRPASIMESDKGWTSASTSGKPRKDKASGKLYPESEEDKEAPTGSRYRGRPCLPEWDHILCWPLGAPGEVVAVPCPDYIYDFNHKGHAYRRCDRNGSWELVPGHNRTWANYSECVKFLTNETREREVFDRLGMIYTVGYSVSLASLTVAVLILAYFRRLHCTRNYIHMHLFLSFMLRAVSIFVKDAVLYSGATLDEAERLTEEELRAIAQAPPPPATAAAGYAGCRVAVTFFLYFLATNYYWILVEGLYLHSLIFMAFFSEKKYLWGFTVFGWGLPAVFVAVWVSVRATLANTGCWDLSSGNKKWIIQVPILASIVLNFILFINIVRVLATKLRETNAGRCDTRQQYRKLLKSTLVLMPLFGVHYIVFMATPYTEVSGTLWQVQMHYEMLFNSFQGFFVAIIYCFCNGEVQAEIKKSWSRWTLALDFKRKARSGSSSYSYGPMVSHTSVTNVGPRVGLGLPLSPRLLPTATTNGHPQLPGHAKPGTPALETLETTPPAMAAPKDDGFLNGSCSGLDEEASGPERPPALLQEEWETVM

| cAMP production activity (%) | SMILES |
| --- | --- |
| 71 | CCCOC1CCC(C2=NC3(CCN(S(=O)(=O)CCc4ccc(NC(C)=O)cc4C)CC3)C(=O)N2)CC1 (centres unmarked) [Compound 911, N-(3-methyl-4-{2-[4-oxo-2-(4-propoxy-cyclohexyl)-1,3,8-triaza-spiro[4.5]dec-1-ene-8-sulfonyl]-ethyl}-phenyl)-acetamide] |
| 70 | Cc1cc(N2C(=O)CNC2=O)ccc1CCS(=O)(=O)N1CCC2(CC1)N=C(C1CCC(C(C)C)CC1)NC2=O (centres unmarked) [Compound 882, 3-(4-{2-[2-(4-isopropyl-cyclohexyl)-4-oxo-1,3,8-triaza-spiro[4.5]dec-1-ene-8-sulfonyl]-ethyl}-3-methyl-phenyl)-imidazolidine-2,4-dione] |
| 74 | CC(=O)NCc1cc(C)c(/C=C/S(=O)(=O)N2CCC3(CC2)N=C(C2CCC(CCC(F)(F)F)CC2)NC3=O)c(C)c1 (centres unmarked) [Compound 558, N-[3,5-dimethyl-4-((E)-2-{4-oxo-2-[4-(3,3,3-trifluoro-propyl)-cyclohexyl]-1,3,8-triaza-spiro[4.5]dec-1-ene-8-sulfonyl}-vinyl)-benzyl]-acetamide] |
| 66 | Cc1cc(C(=O)N2CCC(O)(CF)CC2)cc(C)c1/C=C/S(=O)(=O)N1CCC2(CC1)N=C(c1ccc(C(F)F)c(F)c1)NC2=O [Compound 1255, 2-(4-difluoromethyl-3-fluoro-phenyl)-8-{(E)-2-[4-(4-fluoromethyl-4-hydroxy-piperidine-1-carbonyl)-2,6-dimethyl-phenyl]-ethenesulfonyl}-1,3,8-triaza-spiro[4.5]dec-1-en-4-one] |
| 19 | COC(=O)NCCc1ccc(/C=C/S(=O)(=O)N2CCC3(CC2)N=C(C2CCCCC2)NC3=O)cc1 [Compound 566, (2-{4-[(E)-2-(2-cyclohexyl-4-oxo-1,3,8-triaza-spiro[4.5]dec-1-ene-8-sulfonyl)-vinyl]-phenyl}-ethyl)-carbamic acid methyl ester] |
| 123 | O=C1NC(CCCCCCCC(F)(F)C(F)(F)F)=NC12CCN(S(=O)(=O)/C=C/c1cccc3c1ccn3C[C@H](O)CO)CC2 [Compound 623, 8-{(E)-2-[1-((S)-2,3-Dihydroxy-propyl)-1H-indol-4-yl]-ethenesulfonyl}-2-(8,8,9,9,9-pentafluoro-nonyl)-1,3,8-triaza-spiro[4.5]dec-1-en-4-one] |
| 111 | Cc1cc(N(C)C(N)=O)cc(C)c1CCS(=O)(=O)N1CCC2(CC1)N=C(CCCCCCCCC1(C)COC1)NC2=O [Compound 1031, 1-[3,5-Dimethyl-4-(2-{2-[8-(3-methyl-oxetan-3-yl)-octyl]-4-oxo-1,3,8-triaza-spiro[4.5]dec-1-ene-8-sulfonyl}-ethyl)-phenyl]-1-methyl-urea] |
| 92 | CON(C)C(=O)c1cc(C)c(/C=C/S(=O)(=O)N2CCC3(CC2)N=C(C2CCC(C)CC2)NC3=O)c(C)c1 (centres unmarked) [Compound 998, N-Methoxy-3,5,N-trimethyl-4-{(E)-2-[2-(4-methyl-cyclohexyl)-4-oxo-1,3,8-triaza-spiro[4.5]dec-1-ene-8-sulfonyl]-vinyl}-benzamide] |
| 47 | CC(=O)N(c1ccc(/C=C/S(=O)(=O)N2CCC3(CC2)N=C(C2CCCCC2)NC3=O)c(C)c1)C1CCCC1 [Compound 734, N-{4-[(E)-2-(2-Cyclohexyl-4-oxo-1,3,8-triaza-spiro[4.5]dec-1-ene-8-sulfonyl)-vinyl]-3-methyl-phenyl}-N-cyclopentyl-acetamide trifluoroacetate] |
| 12 | Cc1cc2cc(C)c1CCS(=O)(=O)N1CCC3(CC1)N=C(CCCC/C=C/CCCCCCCC(=O)N2C)NC3=O [Compound 1444] |
| 91 | CC(=CS(=O)(=O)N1CCC2(CC1)N=C(C1CCC(C)CC1)NC2=O)c1c(C)cc(N(C)C(N)=O)cc1C (centres unmarked) [Compound 741, 1-(3,5-dimethyl-4-{1-methyl-2-[2-(4-methyl-cyclohexyl)-4-oxo-1,3,8-triaza-spiro[4.5]dec-1-ene-8-sulfonyl]-vinyl}-phenyl)-1-methyl-urea] |
| 21 | Cc1cc(N(C)C(N)=O)cc(C)c1CCS(=O)(=O)N1CC2(C1)N=C(c1cccc(OC(F)(F)F)c1)NC2=O [Compound 941, 1-(3,5-dimethyl-4-{2-[8-oxo-6-(3-trifluoromethoxy-phenyl)-2,5,7-triaza-spiro[3.4]oct-5-ene-2-sulfonyl]-ethyl}-phenyl)-1-methyl-urea] |
| 99 | N#Cc1c[nH]c2cccc(CCS(=O)(=O)N3CCC4(CC3)N=C(C3CCCCC3)NC4=O)c12 [Compound 646, 4-[2-(2-cyclohexyl-4-oxo-1,3,8-triaza-spiro[4.5]dec-1-ene-8-sulfonyl)-ethyl]-1H-indole-3-carbonitrile] |
| 87 | COc1cc(N(C)C(N)=O)cc(C)c1/C=C/S(=O)(=O)N1CCC2(CC1)N=C(C1CCC(C)CC1)NC2=O (centres unmarked) [Compound 728, 1-(3-Methoxy-5-methyl-4-{(E)-2-[2-(4-methyl-cyclohexyl)-4-oxo-1,3,8-triaza-spiro[4.5]dec-1-ene-8-sulfonyl]-vinyl}-phenyl)-1-methyl-urea] |

Second part, the compound before the results:

| SMILES | cAMP production activity (%) |
| --- | --- |
| O=C(NCCO)Nc1ccc(/C=C/S(=O)(=O)N2CCC3(CC2)N=C(C2CCCCC2)NC3=O)c(C(F)(F)F)c1 [Compound 198, 1-{4-[(E)-2-(2-cyclohexyl-4-oxo-1,3,8-triaza-spiro[4.5]dec-1-ene-8-sulfonyl)-vinyl]-3-trifluoromethyl-phenyl}-3-(2-hydroxy-ethyl)-urea] | 31 |
| Cc1cc(C(=O)N2CCC[C@H]2CO)ccc1CCS(=O)(=O)N1CCC2(CC1)N=C(c1cccc(C(F)(F)F)c1)NC2=O [Compound 356, 8-{2-[4-((S)-2-hydroxymethyl-pyrrolidine-1-carbonyl)-2-methyl-phenyl]-ethanesulfonyl}-2-(3-trifluoromethyl-phenyl)-1,3,8-triaza-spiro[4.5]dec-1-en-4-one] | 78 |
| O=C(OCc1ccccc1)N1CCCC(C2=NC3(CCN(S(=O)(=O)c4cccc(Cl)c4)CC3)C(=O)N2)C1 (centres unmarked) [Compound 461, 3-[8-(3-chloro-benzenesulfonyl)-4-oxo-1,3,8-triaza-spiro[4.5]dec-1-en-2-yl]-piperidine-1-carboxylic acid benzyl ester] | 51 |
| Cc1cc(C(=O)N2CCN(C)CC2)ccc1/C=C/S(=O)(=O)N1CCC2(CC1)N=C(c1cccc(C(F)(F)F)c1)NC2=O [Compound 216, 8-{(E)-2-[2-methyl-4-(4-methyl-piperazine-1-carbonyl)-phenyl]-ethenesulfonyl}-2-(3-trifluoromethyl-phenyl)-1,3,8-triaza-spiro[4.5]dec-1-en-4-one] | 84 |
| Cc1cc(N2C(=O)CC[C@@H]2CO)cc(C)c1/C=C/S(=O)(=O)N1CCC2(CC1)N=C(c1cccc(OC(F)(F)F)c1)NC2=O [Compound 258, 8-{(E)-2-[4-((R)-2-hydroxymethyl-5-oxo-pyrrolidin-1-yl)-2,6-dimethyl-phenyl]-ethenesulfonyl}-2-(3-trifluoromethoxy-phenyl)-1,3,8-triaza-spiro[4.5]dec-1-en-4-one] | 87 |
| O=C1NC(C2CCC(C(F)(F)F)CC2)=NC12CCN(S(=O)(=O)CCc1cccc3c1ccn3C[C@H](O)CO)CC2 (stereo partly drawn) [Compound 322, 8-{2-[1-((S)-2,3-dihydroxy-propyl)-1H-indol-4-yl]-ethanesulfonyl}-2-(4-trifluoromethyl-cyclohexyl)-1,3,8-triaza-spiro[4.5]dec-1-en-4-one] | 75 |
| Cc1cccc(CCCS(=O)(=O)N2CCC3(CC2)N=C(C2CCCCC2)NC3=O)c1 [Compound 316, 2-cyclohexyl-8-(3-m-tolyl-propane-1-sulfonyl)-1,3,8-triaza-spiro[4.5]dec-1-en-4-one] | 20 |
| Cc1cc(C(=O)N(C)CC(=O)O)cc(C)c1/C=C/S(=O)(=O)N1CCC2(CC1)N=C(c1cccc(C(F)(F)F)c1)NC2=O [Compound 452, [(3,5-Dimethyl-4-{(E)-2-[4-oxo-2-(3-trifluoromethyl-phenyl)-1,3,8-triaza-spiro[4.5]dec-1-ene-8-sulfonyl]-vinyl}-benzoyl)-methyl-amino]-acetic acid] | 58 |
| O=C1NC(c2cccc(C(F)(F)F)c2)=NC12CCN(S(=O)(=O)c1cc3ccccc3s1)CC2 [Compound 68, 8-(benzo[b]thiophene-2-sulfonyl)-2-(3-trifluoromethyl-phenyl)-1,3,8-triaza-spiro[4.5]dec-1-en-4-one] | 51 |
| CNC(=O)c1ccc(C)c(CCS(=O)(=O)N2CCC3(CC2)N=C(c2cccc(OC(F)(F)F)c2)NC3=O)c1 [Compound 415, 4,N-dimethyl-3-{2-[4-oxo-2-(3-trifluoromethoxy-phenyl)-1,3,8-triaza-spiro[4.5]dec-1-ene-8-sulfonyl]-ethyl}-benzamide] | 56 |
| Cc1ccccc1/C=C/S(=O)(=O)N1CCC2(CC1)N=C(C1CCCCC1)NC2=O [Compound 186, 2-cyclohexyl-8-((E)-2-o-tolyl-ethenesulfonyl)-1,3,8-triaza-spiro[4.5]dec-1-en-4-one] | 51 |
| Cc1cc(N2C(=O)CNC2=O)ccc1/C=C/S(=O)(=O)N1CCC2(CC1)N=C(C1CCC(C)CC1)NC2=O (centres unmarked) [Compound 504, 3-(3-methyl-4-{(E)-2-[2-(4-methyl-cyclohexyl)-4-oxo-1,3,8-triaza-spiro[4.5]dec-1-ene-8-sulfonyl]-vinyl}-phenyl)-imidazolidine-2,4-dione] | 60 |
